Measured values as given in US4866161A, “Inhibition of tartar deposition by polyanionic/hydrophobic peptides and derivatives thereof which have a clustered block copolymer structure” (University of South Alabama, priority 1987, dated 1989).
Read-outs that look alike come from different tables or passages of the source. Ends that are not written are not given here.

Assays:
[1] = pH-drift assay, calcium phosphate
Method: A solution supersaturated with respect to calcium phosphate is prepared by separately pipetting 0.1 ml of 1.32 M CaCl2 dihydrate and 0.1 ml of 0.90 M NaHl PO4 into 29.8 ml of distilled water. This yields initial concentrations of 4.4 mM Ca^2+ and 3.0 mM dissolved inorganic phosphorus (DIP). The reaction vessel is a 50 ml, round-bottom, 3-necked flask partially immersed in a thermostated water bath at 20° C. The reaction vessel is closed to the atmosphere. The reaction begins upon mixing the reactants with an initial pH of 7.4.
Amorphous calcium phosphate (ACP) nucleates immediately and slowly grows as indicated by a slight decrease in pH during the first 30 minutes or so of the assay. Following this, ACP begins to transform to calcium hydroxylapatite (HAP), Ca10 (PO4)6 (OH)2, as indicated by a marked acceleration in the downward pH drift. The reaction ceases as reactants are depleted and the pH is lowered.
^1 Assay Conditions: Ca at 4.4 mM, dissolved inorganic phosphorus at […]

[2] = pH-drift assay, calcium carbonate
Method: A solution supersaturated with respect to CaCO03 is prepared by separately pipetting 0.3 ml of 1.0 M CaCl2 dihydrate and 0.6 ml of 0.5 M NaHCO3 into 29.1 ml of artificial seawater (0.5 NaCl, 0.011 M KCl). The reaction vessel is a 50 ml, 3-necked, round-bottom flask partially immersed in a thermostated water bath at 20° C. The reaction vessel is closed to the atmosphere to minimize exchange of CO2 The reaction is started by adjusting the pH upward to 8.3 by titration of μl amounts of 1 N NaOH by digital pipette. The initial concentrations are 10 mM each of Ca^2+ and dissolved inorganic carbon (DIC). The reaction is monitored by pH electrode and recorded by strip chart.
The reaction may be quantified by calculations based on DIC equilibria to give the amount of precipitation versus time.
The conditions of the assay were […] dissolved inorganic carbon at 20° C. and 30 ml of artificial seawater (0.5 M NaCl, 0.01 M KCl).

[3] = constant composition assay, CaCO3; conditions: FIG. 5, pH 8.30 held constant, 20° C., doses matched for about 2 hours stabilization
Method: A 50 ml solution of 10 mM CaCl2 and 10 mM dissolved inorganic carbon (DIC) was adjusted to pH 8.34 by digital pipetting of μl amounts of 1 N NaOH. The temperature was held constant at 20° C. using a water-jacketed reaction vessel and a thermostated bath. After about a 6 minute period during which CaCO3 nucleation occurs, the pH beings to drift downward as Ca^2+ and CO3^2- ions are removed from solution as solid crystals. At pH 8.30, inhibitors were added which stabilized the pH drift for certain periods of time. The concentrations of inhibitors used in the experiments shown in FIG. 5 were matched so that the amount of stabilization or inhibition of nucleation was the same, in this case about 2 hours. The doses required for this effect ranged between 0.1 to 0.5 μg/ml of inhibitor depending on the type When crystallization began again, the pH would drift downward. However, it was held constant at pH 8.30±0.02 by automatic titration of 0.5 M CaCl2 and 0.5 M NaCO3 from separate burettes linked via the pH electrode to a computer-assisted titrimeter.

[4] = inhibitor 37 μg/ml; adapted from Hay et al. 1979; cited from earlier work

Compound: O=P(O)(O)CN(CCN(CP(=O)(O)O)CP(=O)(O)O)CCN(CP(=O)(O)O)CP(=O)(O)O [DENTPP, diethylene triamine pentamethylene phosphonic acid]
- PERIOD OF ACP FORMATION ([1]; inhibitor 5 μg/ml): 100 min
- pH/min, ACP FORMATION ([1]; inhibitor 5 μg/ml): 0.0012 pH/min
- pH/min, APATITE FORMATION ([1]; inhibitor 5 μg/ml): 0.019 pH/min

Compound: AAAAAAAAAADDDDDDDDDD [H--(Ala)10 --(Asp)10 --OH]
- inhibitory activity on CaCO3 crystallization, comparison of Table 1 in words ([2]; Table 1): decreased activity

Compound: AAAAAAGDGDGDGDGDGDGD [H--(ALA)6 --(GLY-13 ASP)7 --OH, poly (Asp-Gly)7 (Ala)6]
- inhibition of crystal nucleation (duration of induction period), in words ([2]; FIG. 6, equal doses, artificial seawater, 20° C.): very little activity relative to the control curve
- CRYSTAL GROWTH RATE ([2]; peptide 0.20 μg/ml): 0.048 ± 0.0042 pH/MIN
- INDUCTION PERIOD ([2]; peptide 0.20 μg/ml): 7.2 ± 0.83 min

Compound: DDDDDDDDDDDDDDDDDDDD [H--(ASP)20--OH, poly (Asp)20]
- CRYSTAL GROWTH RATE ([2]; peptide 0.02 μg/ml): 0.047 ± 0.0030 pH/MIN
- INDUCTION PERIOD ([2]; peptide 0.02 μg/ml): 21.5 ± 0.50 min
- CRYSTAL GROWTH RATE ([2]; peptide 0.035 μg/ml): 0.041 ± 0.0050 pH/MIN
- INDUCTION PERIOD ([2]; peptide 0.035 μg/ml): 39.2 ± 10.8 min
- INDUCTION PERIOD ([2]; peptide 0.050 μg/ml): > 180 min

Compound: GDGDGDGDGDGDGDGDGDGD [H--(GLY--ASP)10 --OH]
- CRYSTAL GROWTH RATE ([2]; peptide 0.1 μg/ml): 0.047 ± 0.0097 pH/MIN
- INDUCTION PERIOD ([2]; peptide 0.1 μg/ml): 36.0 ± 5.20 min

Compound: GSDGSDGSDGSDGSDGSDGSD [H--(GLY--SER--ASP)7 --OH]
- CRYSTAL GROWTH RATE ([2]; peptide 0.1 μg/ml): 0.057 ± 0.0034 pH/MIN
- INDUCTION PERIOD ([2]; peptide 0.1 μg/ml): 5.83 ± 1.04 min

Compound: H--(ALA)10 (ASP)15 --OH
- CRYSTAL GROWTH RATE ([2]; peptide 0.050 μg/ml): 0.042 ± 0.0039 pH/MIN
- INDUCTION PERIOD ([2]; peptide 0.050 μg/ml): 32.0 ± 10.4 min

Compound: Polyaspartate [Polyaspartate, MW 15,000]
- pH/min, ACP FORMATION ([1]; inhibitor 10 μg/ml): 0.0040 pH/min
- pH/min, APATITE FORMATION ([1]; inhibitor 10 μg/ml): 0.106 pH/min
- PERIOD OF ACP FORMATION ([1]; inhibitor 10 μg/ml, Ca 4.4 mM, DIP 3.0 mM, initial pH 7.40, 20° C.): 30 min
- PERIOD OF ACP FORMATION ([1]; inhibitor 15 μg/ml): 48 min
- pH/min, ACP FORMATION ([1]; inhibitor 15 μg/ml): 0.0050 pH/min
- pH/min, APATITE FORMATION ([1]; inhibitor 15 μg/ml): 0.070 pH/min

Compound: Polyaspartate [matrix analog]
- rate of crystallization after the period of stabilization [3]: not observed

Compound: SDSDSDSDSDSDSDSDSDSD [H--(SER--ASP)10 --OH]
- CRYSTAL GROWTH RATE ([2]; peptide 0.1 μg/ml): 0.048 ± 0.0040 pH/MIN
- INDUCTION PERIOD ([2]; peptide 0.1 μg/ml): 29.8 ± 4.99 min

Compound: Statherin: salivary protein, most effective inhibitor among salivary proteins that regulate mineral deposition in the oral cavity (DSSEEKFLRRIGRFGYGYGPYQPVPEQPLYPQPYQPQYQQYTF; UniProt P02808 20-62, looked up)
- PERIOD OF ACP FORMATION [4]: 48 min
- pH/min, ACP FORMATION [4]: 0.0045 pH/min
- pH/min, APATITE FORMATION [4]: 0.0090 pH/min
